IC50 data for 69 compounds are collected here from patent publication US9365588B2, “Benzoxazines as modulators of ion channels” (Vertex Pharmaceuticals Incorporated, priority 2011, dated 2016).

Sequence of human NaV 1.7 (Q15858 whole entry): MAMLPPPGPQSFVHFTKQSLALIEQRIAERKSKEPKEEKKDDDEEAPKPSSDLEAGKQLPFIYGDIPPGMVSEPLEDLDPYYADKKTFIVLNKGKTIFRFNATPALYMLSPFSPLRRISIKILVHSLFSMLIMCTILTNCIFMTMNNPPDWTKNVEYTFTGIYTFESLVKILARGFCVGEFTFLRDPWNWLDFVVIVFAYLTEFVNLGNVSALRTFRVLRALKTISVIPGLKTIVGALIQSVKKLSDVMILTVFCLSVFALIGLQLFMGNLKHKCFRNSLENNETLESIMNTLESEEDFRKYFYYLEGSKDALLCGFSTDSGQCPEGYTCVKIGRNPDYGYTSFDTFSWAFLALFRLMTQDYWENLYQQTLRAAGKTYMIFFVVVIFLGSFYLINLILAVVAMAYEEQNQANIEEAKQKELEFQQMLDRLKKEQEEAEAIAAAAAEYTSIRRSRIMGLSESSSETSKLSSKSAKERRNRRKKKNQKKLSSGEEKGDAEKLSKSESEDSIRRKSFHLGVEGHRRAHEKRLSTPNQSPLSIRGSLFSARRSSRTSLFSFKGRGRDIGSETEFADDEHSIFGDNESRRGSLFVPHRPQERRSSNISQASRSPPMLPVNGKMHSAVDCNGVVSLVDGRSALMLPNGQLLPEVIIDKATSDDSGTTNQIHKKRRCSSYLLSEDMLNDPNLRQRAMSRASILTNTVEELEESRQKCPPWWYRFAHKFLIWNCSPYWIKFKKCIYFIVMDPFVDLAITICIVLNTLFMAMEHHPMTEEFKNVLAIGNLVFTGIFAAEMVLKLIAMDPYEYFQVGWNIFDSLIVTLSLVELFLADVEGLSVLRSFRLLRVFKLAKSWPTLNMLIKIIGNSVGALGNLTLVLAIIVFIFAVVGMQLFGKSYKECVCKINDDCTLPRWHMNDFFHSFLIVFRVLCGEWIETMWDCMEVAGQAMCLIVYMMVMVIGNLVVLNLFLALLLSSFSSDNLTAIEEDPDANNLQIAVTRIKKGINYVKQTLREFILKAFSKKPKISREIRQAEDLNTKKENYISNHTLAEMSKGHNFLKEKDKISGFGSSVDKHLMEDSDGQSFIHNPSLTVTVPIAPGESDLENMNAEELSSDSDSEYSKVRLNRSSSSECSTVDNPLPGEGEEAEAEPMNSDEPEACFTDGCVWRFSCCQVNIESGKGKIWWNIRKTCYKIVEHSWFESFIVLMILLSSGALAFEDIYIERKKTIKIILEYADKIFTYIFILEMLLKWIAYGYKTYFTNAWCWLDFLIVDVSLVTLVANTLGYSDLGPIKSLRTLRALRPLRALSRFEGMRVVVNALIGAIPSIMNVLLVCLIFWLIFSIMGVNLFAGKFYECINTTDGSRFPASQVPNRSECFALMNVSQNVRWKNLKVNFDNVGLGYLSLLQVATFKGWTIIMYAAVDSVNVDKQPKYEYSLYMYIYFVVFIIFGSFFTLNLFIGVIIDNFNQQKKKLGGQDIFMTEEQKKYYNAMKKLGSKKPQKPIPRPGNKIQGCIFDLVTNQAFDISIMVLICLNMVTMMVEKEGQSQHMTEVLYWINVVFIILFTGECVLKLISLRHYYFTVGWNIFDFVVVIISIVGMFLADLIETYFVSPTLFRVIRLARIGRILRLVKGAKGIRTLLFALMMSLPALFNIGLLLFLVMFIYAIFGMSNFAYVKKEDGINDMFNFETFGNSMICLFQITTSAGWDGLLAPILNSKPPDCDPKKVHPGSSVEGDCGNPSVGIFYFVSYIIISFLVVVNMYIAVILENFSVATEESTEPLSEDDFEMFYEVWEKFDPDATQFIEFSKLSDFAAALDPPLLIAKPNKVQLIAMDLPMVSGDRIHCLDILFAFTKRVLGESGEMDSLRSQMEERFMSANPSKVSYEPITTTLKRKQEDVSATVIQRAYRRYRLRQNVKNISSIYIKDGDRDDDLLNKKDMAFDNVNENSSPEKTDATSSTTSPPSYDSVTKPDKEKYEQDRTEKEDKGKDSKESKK

The target of the experiment is human NaV 1.7 (Homo sapiens, UniProt Q15858). Kind of experiment: E-VIPR optical membrane potential assay with electrical stimulation. The experiment is classed as cell-based. Conditions: sodium channel inhibition; read-out: Binned Activity Data (IC50). The essentials:
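Membrane-potential read-out: background-subtracted 460 nm/580 nm ratio during a 9 s current-controlled stimulus, 400 Hz scan. Before stimulation, NaV1.7-HEK cells carried coumarin/oxonol dye and compound (final DMSO 0.625%) for 20–35 min at room temperature; tetracaine 125 μM served as positive control.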
What is called IC50 is the midpoint of a concentration-inhibition curve. For `Cn1ncc2c1-c1ccccc1OC21CCN(C(=O)c2cccc(OC(F)(F)F)c2)CC1` [Compound 619], the half-inhibitory concentration (IC50) is > 5000 nM.
As for `COc1ccc(C(=O)N2CCC3(CC2)Oc2ccccc2-c2c3cnn2C)cc1OC` [Compound 620], the half-maximal inhibitory concentration (IC50) was ≤ 2000 nM.
Regarding `CC(C)S(=O)(=O)c1ccc(C(=O)N2CCC3(CC2)Oc2ccccc2-n2c(C(F)(F)F)ccc23)cc1` [Compound 621], the IC50 was ≤ 2000 nM.
For `COc1cc(C(C)(C)O)ccc1C(=O)N1CCC2(CC1)Oc1ccccc1-n1c(C#N)ccc12` [Compound 622], the IC50 is ≤ 2000 nM.
Take `Cn1ncc2c1-c1ccc(Cl)cc1OC21CCN(C(=O)c2ccccc2OC(F)F)CC1` [Compound 623]: the IC50 was ≤ 2000 nM.
As to `Cn1ncc2c1-c1ccccc1OC21CCN(C(=O)c2ccc(S(=O)(=O)C(F)F)cc2)CC1` [Compound 626], the half-inhibitory concentration (IC50) was ≤ 2000 nM.
As for `COc1cc(C)ccc1C(=O)N1CCC2(CC1)Oc1cc(Cl)ccc1-n1cccc12` [Compound 627], the IC50 was ≤ 2000 nM.
As for `COCCOc1cc(F)c(C(=O)N2CCC3(CC2)Oc2cc(Cl)ccc2-n2cccc23)cc1OC` [Compound 628], the figure is ≤ 2000 nM; as for `CCCOc1ccc(C(=O)N2CCC3(CC2)Oc2cc(F)ccc2-n2cccc23)cc1C(F)(F)F` [Compound 631], ≤ 2000 nM; as for `COc1cc(C(=O)N2CCC3(CC2)Oc2cc(F)ccc2-n2cccc23)ccc1OCC1CCCO1` (stereo not drawn) [Compound 632], ≤ 2000 nM.
As for `Cc1cc(C(C)(C)O)ccc1C(=O)N1CCC2(CC1)Oc1ccccc1-n1c(C#N)ccc12` [Compound 633], the figure is ≤ 2000 nM; as for `COc1cc(C(=O)N2CCC3(CC2)Oc2cc(Cl)ccc2-n2cccc23)ccc1CCO` [Compound 635], ≤ 2000 nM; as for `Cn1ncc2c1-c1ccccc1OC21CCN(C(=O)c2ccc(OC(F)(F)F)c(Cl)c2)CC1` [Compound 636], ≤ 2000 nM.
Turning to `COc1cc(C(C)(C)O)ccc1C(=O)N1CCC2(CC1)Oc1ccccc1-c1c2cnn1C` [Compound 637], the IC50 was ≤ 2000 nM.
On to `C[C@@](O)(CO)c1ccc(C(=O)N2CCC3(CC2)Oc2ccccc2-n2c(C(F)(F)F)ccc23)cc1` [Compound 640], for which the IC50 is ≤ 2000 nM.
Take `COc1ncccc1C(=O)N1CCC2(CC1)Oc1ccccc1-c1c2cnn1C` [Compound 642]: the IC50 fell in the range of 2000 to 5000 nM.
As to `Cn1ncc2c1-c1ccccc1OC21CCN(C(=O)c2ccc(S(=O)(=O)C(C)(C)C)cc2)CC1` [Compound 643], the half-maximal inhibitory concentration (IC50) lay in the range of 2000 to 5000 nM.
With `Cn1ncc2c1-c1ccccc1OC21CCN(C(=O)c2cccc3cnn(C)c23)CC1` [Compound 644], the IC50 is > 5000 nM.
For `COc1ccc(C(=O)N2CCC3(CC2)Oc2ccccc2-c2nn(C)cc23)c(OC)c1OC` [Compound 646], the IC50 was ≤ 2000 nM.
Consider `CC(C)Oc1ccc(C(=O)N2CCC3(CC2)Oc2ccccc2-c2c3cnn2C)cc1F` [Compound 650], for which the IC50 is ≤ 2000 nM.
As for `Cn1ncc2c1-c1ccccc1OC21CCN(C(=O)c2cccc3cccnc23)CC1` [Compound 651], the IC50 was ≤ 2000 nM.
As for `Cn1cc2c(n1)-c1ccccc1OC21CCN(C(=O)c2ccnc3ccccc23)CC1` [Compound 652], the figure is ≤ 2000 nM.
For the compound `Cn1ncc2c1-c1cc(Cl)ccc1OC21CCN(C(=O)c2ccccc2OC(F)(F)F)CC1` [Compound 653], the half-inhibitory concentration (IC50) is ≤ 2000 nM.
As to `Cc1cc(C(=O)N2CCC3(CC2)Oc2ccccc2-n2c(C#N)ccc23)ccc1OC(C)C` [Compound 655], the concentration for half-maximal inhibition (IC50) was ≤ 2000 nM.
In the case of `Cn1ncc2c1-c1ccccc1OC21CCN(C(=O)c2nccc3ccccc23)CC1` [Compound 657], the concentration for half-maximal inhibition (IC50) was > 5000 nM.
As for `Cc1nc(C(=O)N2CCC3(CC2)Oc2ccccc2-n2c(C(F)(F)F)ccc23)ccc1OC(C)C` [Compound 658], the figure is ≤ 2000 nM; as for `N#Cc1ccc2n1-c1ccccc1OC21CCN(C(=O)c2ccc(F)c(Cl)c2)CC1` [Compound 659], > 5000 nM; as for `COc1cc(OC)c(C(=O)N2CCC3(CC2)Oc2cc(F)ccc2-n2cccc23)cc1CO` [Compound 660], ≤ 2000 nM.
On to `CC(C)S(=O)(=O)c1ccc(C(=O)N2CCC3(CC2)Oc2cc(F)ccc2-c2c3cnn2C)cc1` [Compound 662], for which the IC50 fell in the range of 2000 to 5000 nM.
As for `Cn1ncc2c1-c1ccccc1OC21CCN(C(=O)c2ccc(S(=O)(=O)C(F)(F)F)cc2)CC1` [Compound 663], the figure is ≤ 2000 nM.
As for `COc1ccc(C(=O)N2CCC3(CC2)Oc2ccccc2-c2c3cnn2C)c(OC(F)(F)F)c1` [Compound 664], the figure is ≤ 2000 nM; as for `COc1c(F)cccc1C(=O)N1CCC2(CC1)Oc1cc(Cl)ccc1-n1c(C#N)ccc12` [Compound 665], ≤ 2000 nM; as for `CC(C)[S+]([O-])c1ccc(C(=O)N2CCC3(CC2)Oc2ccccc2-c2c3cnn2C)cc1` (stereo not drawn) [Compound 666], 2000 to 5000 nM.
As to `Cn1ncc2c1-c1ccccc1OC21CCN(C(=O)c2ccc(Cl)cc2S(C)(=O)=O)CC1` [Compound 667], the concentration for half-maximal inhibition (IC50) was > 5000 nM.
Regarding `COc1cc(C(=O)N2CCC3(CC2)Oc2ccccc2-c2c3cnn2C)ccc1OC[C@@H](C)OC` [Compound 668], the IC50 was ≤ 2000 nM.
As for `CCc1ccc(C(=O)N2CCC3(CC2)Oc2cc(COC)ccc2-n2cccc23)cc1OC` [Compound 669], the figure is ≤ 2000 nM; as for `Cn1cc(C(=O)N2CCC3(CC2)Oc2cc(Cl)ccc2-n2cccc23)ccc1=O` [Compound 670], > 5000 nM.
As for `N#Cc1ccc2n1-c1ccccc1OC21CCN(C(=O)c2ccc(O)cc2)CC1` [Compound 671], the figure is ≤ 2000 nM.
Next, `COc1ccccc1C(=O)N1CCC2(CC1)Oc1ccccc1-c1c2cnn1C` [Compound 672]: ≤ 2000 nM; `COc1c(Cl)cccc1C(=O)N1CCC2(CC1)Oc1ccccc1-c1c2cnn1C` [Compound 673]: ≤ 2000 nM; `CCn1ncc2c1-c1cc(F)ccc1OC21CCN(C(=O)c2ccccc2OC)CC1` [Compound 674]: 2000 to 5000 nM.
On to `CNS(=O)(=O)c1ccc(C(=O)N2CCC3(CC2)Oc2ccccc2-n2c(C(F)(F)F)ccc23)cc1` [Compound 675], for which the concentration for half-maximal inhibition (IC50) was ≤ 2000 nM.
Turning to `Cc1cc(C(=O)N2CCC3(CC2)Oc2ccccc2-n2c(CNC=O)ccc23)ccc1OC(C)C` [Compound 677], the IC50 was ≤ 2000 nM.
`COc1cc(C(=O)N2CCC3(CC2)Oc2ccccc2-n2cccc23)ccc1OC1CCC(O)C1` (stereo not drawn) [Compound 678]: the IC50 is ≤ 2000 nM.
Take `CC(C)S(=O)(=O)c1ccc(C(=O)N2CCC3(CC2)Oc2cc(Cl)ccc2-n2c(C#N)ccc23)cc1` [Compound 679]: the IC50 was 2000 to 5000 nM.
As to `CC[C@@H](C)Oc1ccc(C(=O)N2CCC3(CC2)Oc2cc(Cl)ccc2-n2cccc23)cc1OC` [Compound 681], the IC50 is ≤ 2000 nM.
As to `CC(C)(O)Cc1ccc(C(=O)N2CCC3(CC2)Oc2ccccc2-n2c(C(F)(F)F)ccc23)cc1` [Compound 682], the IC50 is ≤ 2000 nM.
Consider `COc1cc(C(=O)N2CCC3(CC2)Oc2cc(F)ccc2-n2cccc23)ccc1O[C@@H]1CCOC1` [Compound 683], for which the IC50 is ≤ 2000 nM.
Next, `C[S+]([O-])c1ccc(C(=O)N2CCC3(CC2)Oc2ccccc2-n2c(C#N)ccc23)cc1C(F)(F)F` (stereo not drawn) [Compound 684]: ≤ 2000 nM; `CC(C)(CO)S(=O)(=O)c1ccc(C(=O)N2CCC3(CC2)Oc2ccccc2-n2c(C(F)(F)F)ccc23)cc1` [Compound 685]: 2000 to 5000 nM; `COc1cc(C(=O)N2CCC3(CC2)Oc2ccccc2-n2c(C#N)ccc23)ccc1OC(C)(C)C` [Compound 686]: ≤ 2000 nM.
Take `COc1cc(C(=O)N2CCC3(CC2)Oc2ccccc2-n2cccc23)ccc1OCC(N)=O` [Compound 687]: the IC50 is ≤ 2000 nM.
Consider `Cc1cc(C(=O)N2CCC3(CC2)Oc2ccccc2-c2nn(C)cc23)ccc1OC(C)C` [Compound 689], for which the 50% inhibitory concentration (IC50) is ≤ 2000 nM.
As for `COc1cc(C(=O)N2CCC3(CC2)Oc2cc(Cl)ccc2-n2cccc23)ccc1O[C@H]1CCOC1` [Compound 690], the figure is 2000 to 5000 nM; as for `COc1cc(C(=O)N2CCC3(CC2)Oc2cc(F)ccc2-n2cccc23)ccc1OC[C@@H]1COC(C)(C)O1` [Compound 693], ≤ 2000 nM.
For the compound `COc1cc(OC(C)C)ccc1C(=O)N1CCC2(CC1)Oc1ccccc1-c1c2cnn1C` [Compound 694], the IC50 is ≤ 2000 nM.
In the case of `CCc1ccc(C(=O)N2CCC3(CC2)Oc2cc(Cl)ccc2-n2cccc23)cc1OC` [Compound 697], the IC50 is ≤ 2000 nM.
For the compound `COc1cc(C(=O)N2CCC3(CC2)Oc2ccccc2-n2c(C#N)ccc23)ccc1C(C)(C)CO` [Compound 698], the half-maximal inhibitory concentration (IC50) was ≤ 2000 nM.
Turning to `COc1c(F)cccc1C(=O)N1CCC2(CC1)Oc1ccccc1-c1c2cnn1C` [Compound 699], the half-maximal inhibitory concentration (IC50) is ≤ 2000 nM.
As for `Cc1cc(C(=O)N2CCC3(CC2)Oc2ccccc2-c2c3cnn2C)ccc1O` [Compound 700], the figure is ≤ 2000 nM.
As for `Cc1ccc(C(=O)N2CCC3(CC2)Oc2ccccc2-c2c3cnn2C)cc1C` [Compound 701], the figure is 2000 to 5000 nM; as for `COc1c(C(=O)N2CCC3(CC2)Oc2ccccc2-c2c3cnn2C)ccc(F)c1F` [Compound 702], 2000 to 5000 nM; as for `COc1cccc(OC)c1C(=O)N1CCC2(CC1)Oc1cc(Cl)ccc1-n1cccc12` [Compound 703], ≤ 2000 nM.
As to `Cn1ncc2c1-c1ccccc1OC21CCN(C(=O)c2ccc(OC(C)(C)C)cc2F)CC1` [Compound 704], the IC50 is ≤ 2000 nM.
Next, `CC(C)n1ncc2c1-c1ccccc1OC21CCN(C(=O)c2ccccc2OC(F)F)CC1` [Compound 705]: ≤ 2000 nM; `COCCOc1cc(C(=O)N2CCC3(CC2)Oc2cc(Cl)ccc2-n2cccc23)ccn1` [Compound 706]: ≤ 2000 nM; `CCCOc1ccc(C(=O)N2CCC3(CC2)Oc2ccccc2-c2c3cnn2C)cc1C` [Compound 709]: ≤ 2000 nM.
Next, `Cc1ccc(OC(C)C)c(C(=O)N2CCC3(CC2)Oc2ccccc2-c2c3cnn2C)c1` [Compound 710]: ≤ 2000 nM.
As for `CC(C)C(O)c1ccc(C(=O)N2CCC3(CC2)Oc2ccccc2-c2c3cnn2C)cc1` (stereo not drawn) [Compound 711], the figure is ≤ 2000 nM.
